Columns and labels:
Format in all cases: in vivo
[1] = system: Spodoptera exigua; experiment: Spodoptera exigua caterpillars on carnations, feeding damage (Example 1); details: for Day 7 reduction of feeding damage in %: Day 7, (I-1) 150, azadirachtin 30, (I-1)+azadirachtin 150+30, imidacloprid 100 g of active compound/ha; for Day 32 reduction of feeding damage in %: Day 32, (I-1) 150, azadirachtin 30, (I-1)+azadirachtin 150+30, imidacloprid 100 g of active compound/ha; for Day 40 reduction of feeding damage in %: Day 40, (I-1) 150, azadirachtin 30, (I-1)+azadirachtin 150+30, imidacloprid 100 g of active compound/ha
Protocol: Example 1 describes the effect of the combination according to the invention on caterpillars of the owlet moth (Spodoptera exigua) on carnations (Dianthus caryophyllus). Azadirachtin was employed as NeemAzal® from Trifolio GmbH. The test was carried out according to EPPO guidelines PP 1/152 (2), PP 1/181 (3), PP 1/135 (3) and PP 1/210 (1) with 4 repetitions of in each case 10 plants. At the start of the infection, the plants were treated as follows: • 1. untreated • 2. compound (I-1) as SL 200 (17% strength), 150 g of active compound/ha • 3. azadirachtin 30 g of active compound/ha • 4. compound (I-1) as SL 200+azadirachtin, 150+30 g of active compound/ha • 5. positive control: imidacloprid 100 g of active compound/ha
The spray solution was prepared by mixing commercial formulations and using water to adjust to the concentration mentioned. The application rate was 1000 l/ha. 3 Applications were carried out at intervals of 10-14 days. The feeding damage caused by the caterpillars on the carnation leaves was scored at weekly intervals.

[2] = system: Trialeurodes vaporariorum; experiment: Whiteflies on tomatoes, further test (Example 6); details: (I-1) 50, azadirachtin 15, (I-1)+azadirachtin 50+15, imidacloprid 100 g/ha
Protocol: This example describes a further test with the formulation according to the invention against whiteflies (Trialeurodes vaporariorum) on tomatoes (Lycopersicon esculentum). The test was carried out under GEP according to EPPO guideline PP 1/36(2) with 4 repetitions of in each case 5 plants. At the start of the infection, the plants were treated as follows: • 1. untreated • 2. compound (I-1) as SL 200 (compound according to formula (I-1), 17% strength), 50 g of active compound/ha • 3. azadirachtin 15 g of active compound/ha, NeemAzal® • 4. azadirachtin 5 g of active compound/ha, NeemAzal® 5. compound (I-1) as SL 200+azadirachtin, 50+15 g of active compound/ha • 6. compound (I-1) as SL 200+azadirachtin, 50+5 g of active compound/ha • 7. positive control imidacloprid 100 g of active compound/ha
The spray solution was prepared by mixing commercial formulations and using water to adjust to the concentration mentioned. The application rate was 1000 l/ha. 2 applications were carried out at intervals of 10 days. The number of adult flies and the number of larvae were scored on days 2 to 32 after the first application. What is shown is the effect of the products, which becomes evident in a reduction of the number of insects or larvae compared to the untreated control. Imidacloprid was also tested, as positive control.

[3] = system: Tetranychus urticae; experiment: Greenhouse red spider mite on roses (Example 7); details: (I-1) 50, azadirachtin 30, (I-1)+azadirachtin 50+30, imidacloprid 100 g/ha
Protocol: Example 7 describes the effect of the combination according to the invention on the greenhouse red spider mite (Tetranychus urticae) on roses. The test was carried out in a greenhouse under GEP according to EPPO guideline PP 1/168(2) with 4 repetitions of in each case 4 plants. At the start of the infection, the plants were treated as follows: • 1. untreated • 2. compound (I-1) as SL 200 (compound according to formula (I-1), 17% strength), 50 g of active compound/ha • 3. azadirachtin 30 g of active compound/ha, NeemAzal® • 4. azadirachtin 5 g of active compound/ha, NeemAzal® • 5. compound (I-1) as SL 200+azadirachtin, 50+30 g of active compound/ha • 6. compound (I-1) as SL 200+azadirachtin, 50+5 g of active compound/ha • 7. positive control imidacloprid 100 g of active compound/ha
The spray solution was prepared by mixing commercial formulations and using water to adjust to the concentration mentioned. The application rate was 1000 l/ha. 2 applications were carried out at intervals of 14 days. The number of spider mites on days 2 to 32 after the first application was scored. What is shown is the effect of the products, which becomes evident in a reduction of the number of spider mites compared to the untreated control.

[4] = system: Spodoptera frugiperda; experiment: Fall armyworm caterpillars on maize, feeding damage (Example 8); details: reduction of feeding damage, (I-1) 50, azadirachtin 30, (I-1)+azadirachtin 50+30, imidacloprid 100 g/ha
[5] = system: Phyllotreta nigripes; experiment: Turnip flea beetle on cabbage (Example 10); details: (I-1) 150, azadirachtin 30, (I-1)+azadirachtin 150+30, imidacloprid 100 g/ha
Protocol: Example 10 describes the effect of the combination according to the invention on caterpillars of the turnip flea beetle Phyllotreta nigripes on cabbage. The test was carried out according to EPPO guidelines PP 1/210(1), PP 1/152 (2), PP 1/181 (3) and PP 1/135 with 4 repetitions of in each case 10 plants. The plants were treated as follows: • 1. untreated • 2. compound (I-1) as SL 200 (compound according to formula (I-1), 17% strength), 150 g of active compound/ha • 3. azadirachtin 30 g of active compound/ha, NeemAzal® • 4. compound (I-1) as SL 200+azadirachtin, 150+30 g of active compound/ha • 5. positive control imidacloprid 100 g of active compound/ha
The spray solution was prepared by mixing commercial formulations and using water to adjust to the concentration mentioned. The application rate was 1000 l/ha. 2 applications were carried out at intervals of 14 days. The number of live caterpillars on days 7 to 32 after the first application was scored. What is shown is the effect of the products, which becomes evident in a reduction of the number of caterpillars compared to the untreated control.

## O=[N+]([O-])NC1=NCCN1Cc1ccc(Cl)nc1 [imidacloprid]
[1]
  Day 7 reduction of feeding damage in %: 0%
  Day 32 reduction of feeding damage in %: 97%
  Day 40 reduction of feeding damage in %: 100%
[1]; Day 25, (I-1) 150, azadirachtin 30, (I-1)+azadirachtin 150+30, imidacloprid 100 g of active compound/ha
  Day 25 reduction of feeding damage in %: 100%
[2]; Day 2
  Activity against adults [%]: 91%
  Activity against larvae [%]: 0%
[2]; Day 7
  Activity against adults [%]: 96%
  Activity against larvae [%]: 57%
[2]; Day 14
  Activity against adults [%]: 98%
  Activity against larvae [%]: 70%
[2]; Day 21
  Activity against adults [%]: 99%
  Activity against larvae [%]: 68%
[2]; Days 28-32
  Activity against adults [%]: 91%
  Activity against larvae [%]: 94%
[3]; Day 2
  Activity against Tetranychus urticae [%]: 20%
[3]; Day 7
  Activity against Tetranychus urticae [%]: 16%
[3]; Day 14
  Activity against Tetranychus urticae [%]: 11%
[3]; Day 21
  Activity against Tetranychus urticae [%]: 27%
[3]; Days 28-32
  Activity against Tetranychus urticae [%]: 46%
[4]; Day 7
  Activity against Spodoptera frugiperda [%]: 24%
[4]; Day 14
  Activity against Spodoptera frugiperda [%]: 57%
[4]; Day 21
  Activity against Spodoptera frugiperda [%]: 14%
[4]; Days 28-32
  Activity against Spodoptera frugiperda [%]: 12%
[4]; Days 35-42
  Activity against Spodoptera frugiperda [%]: 10%
[5]; Day 7
  Activity against Phyllotreta nigripes [%]: 52%
[5]; Days 14-16
  Activity against Phyllotreta nigripes [%]: 51%
[5]; Days 21-25
  Activity against Phyllotreta nigripes [%]: 49%
[5]; Days 28-32
  Activity against Phyllotreta nigripes [%]: 43%

## O=C1C=C(N(Cc2ccc(Cl)nc2)CC(F)F)CO1 [(I-1), 4-{[(6-chloropyrid-3-yl)methyl](2,2-difluoroethyl)amino}furan-2(5H)-one]
[1]
  Day 7 reduction of feeding damage in %: 0%
  Day 32 reduction of feeding damage in %: 49%
  Day 40 reduction of feeding damage in %: 88%
[2]; Day 2
  Activity against adults [%]: 86%
  Activity against larvae [%]: 0%
[2]; Day 7
  Activity against adults [%]: 88%
  Activity against larvae [%]: 0%
[2]; Day 14
  Activity against adults [%]: 93%
  Activity against larvae [%]: 18%
[2]; Day 21
  Activity against adults [%]: 96%
  Activity against larvae [%]: 4%
[2]; Days 28-32
  Activity against adults [%]: 67%
  Activity against larvae [%]: 68%
[3]; Day 2
  Activity against Tetranychus urticae [%]: 28%
[3]; Day 7
  Activity against Tetranychus urticae [%]: 15%
[3]; Day 14
  Activity against Tetranychus urticae [%]: 43%
[3]; Day 21
  Activity against Tetranychus urticae [%]: 12%
[3]; Days 28-32
  Activity against Tetranychus urticae [%]: 15%
[4]; Day 7
  Activity against Spodoptera frugiperda [%]: 0%
[4]; Day 14
  Activity against Spodoptera frugiperda [%]: 0%
[4]; Day 21
  Activity against Spodoptera frugiperda [%]: 0%
[4]; Days 28-32
  Activity against Spodoptera frugiperda [%]: 0%
[4]; Days 35-42
  Activity against Spodoptera frugiperda [%]: 0%
[5]; Day 7
  Activity against Phyllotreta nigripes [%]: 0%
[5]; Days 14-16
  Activity against Phyllotreta nigripes [%]: 9.5%
[5]; Days 21-25
  Activity against Phyllotreta nigripes [%]: 7.4%
[5]; Days 28-32
  Activity against Phyllotreta nigripes [%]: 2.8%

From patent publication US8653110B2, “Active compound combination comprising azadirachtin and a substituted enaminocarbonyl compound” (Bayer CropScience AG, priority 2010, dated 2014)
